Key:
[1] = tested on: monkeys; assay: Conventional nonclinical toxicology study, NHP; details: 9M NHP
Experimental: Conventional animal toxicology studies in rats and monkeys were performed by Merck & Co, Inc (West Point, Pennsylvania).

[2] = Clinical study exposures; type: in vivo, human
[3] = molecular target: T1, CYP3A4 (Homo sapiens, UniProt P08684); assay: HEK293/CYP3A4 assay of Nrf2 stabilization and CYP3A4 degradation; type: cell-based; details: HEK293 cells with inducible CYP3A4, Western blot
T1 construct: expressed in transfected cells; host or cells: HEK293 Flp-In host cell line (Invitrogen/ThermoFisher Flp-In T-REx system)
T1 sequence (P08684 whole entry): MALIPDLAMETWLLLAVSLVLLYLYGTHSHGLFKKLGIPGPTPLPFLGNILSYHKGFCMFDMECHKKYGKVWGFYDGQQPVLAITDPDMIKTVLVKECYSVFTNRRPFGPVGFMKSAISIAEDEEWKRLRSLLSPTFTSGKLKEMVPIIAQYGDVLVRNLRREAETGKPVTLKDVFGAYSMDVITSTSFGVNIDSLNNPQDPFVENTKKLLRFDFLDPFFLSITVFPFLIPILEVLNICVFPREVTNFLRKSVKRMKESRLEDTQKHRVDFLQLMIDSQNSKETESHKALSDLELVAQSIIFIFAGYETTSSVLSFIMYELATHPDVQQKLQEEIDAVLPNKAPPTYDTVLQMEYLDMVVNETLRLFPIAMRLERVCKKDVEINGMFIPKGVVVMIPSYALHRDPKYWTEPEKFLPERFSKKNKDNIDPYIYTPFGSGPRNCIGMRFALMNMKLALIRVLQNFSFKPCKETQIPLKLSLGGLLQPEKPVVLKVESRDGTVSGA
Text: Specifically, these assays evaluated the potential of the 3 different CGRP receptor antagonists to form reactive metabolites that promote the stabilization of Nrf2 or covalently bind to CYP3A4, triggering its subsequent time-dependent degradation, as assessed by Western blot. To seek further confirmatory evidence for reactive metabolite formation, a HEK293 cell line expressing doxycycline inducible CYP3A4 P450 enzyme expression construct with a Flag tag epitope fused to the C-terminus was constructed and cloned using the Invitrogen/ThermoFisher Scientific Flp-In T-TEx system and the HEK293 Flp-In host cell line per standard protocol. […] Alternatively, this simplified single CYP test model might not allow for Nrf2 stabilization if sufficient quantities of the chemically reactive metabolite cannot be generated by CYP3A4, or cannot escape the catalytic site of CYP3A4, which would appear on Western blot using anti-Flag antibody as time-dependent CYP3A4 degradation.

[4] = molecular target: T2, BSEP (Homo sapiens, UniProt O95342); assay: BSEP vesicular transport inhibition assay; type: biochemical; details: for Vmax of taurocholate: BSEP vesicle assay; for BSEP inhibition type: from Km and Vmax changes / model fit; for inhibition of BSEP-mediated probe substrate transport: vesicular transport inhibition assay; for alpha (mixed inhibition model): BSEP
T2 construct: Solvo Biotechnology (Szeged, Hungary), contract laboratory that ran the assay
T2 sequence (O95342 whole entry): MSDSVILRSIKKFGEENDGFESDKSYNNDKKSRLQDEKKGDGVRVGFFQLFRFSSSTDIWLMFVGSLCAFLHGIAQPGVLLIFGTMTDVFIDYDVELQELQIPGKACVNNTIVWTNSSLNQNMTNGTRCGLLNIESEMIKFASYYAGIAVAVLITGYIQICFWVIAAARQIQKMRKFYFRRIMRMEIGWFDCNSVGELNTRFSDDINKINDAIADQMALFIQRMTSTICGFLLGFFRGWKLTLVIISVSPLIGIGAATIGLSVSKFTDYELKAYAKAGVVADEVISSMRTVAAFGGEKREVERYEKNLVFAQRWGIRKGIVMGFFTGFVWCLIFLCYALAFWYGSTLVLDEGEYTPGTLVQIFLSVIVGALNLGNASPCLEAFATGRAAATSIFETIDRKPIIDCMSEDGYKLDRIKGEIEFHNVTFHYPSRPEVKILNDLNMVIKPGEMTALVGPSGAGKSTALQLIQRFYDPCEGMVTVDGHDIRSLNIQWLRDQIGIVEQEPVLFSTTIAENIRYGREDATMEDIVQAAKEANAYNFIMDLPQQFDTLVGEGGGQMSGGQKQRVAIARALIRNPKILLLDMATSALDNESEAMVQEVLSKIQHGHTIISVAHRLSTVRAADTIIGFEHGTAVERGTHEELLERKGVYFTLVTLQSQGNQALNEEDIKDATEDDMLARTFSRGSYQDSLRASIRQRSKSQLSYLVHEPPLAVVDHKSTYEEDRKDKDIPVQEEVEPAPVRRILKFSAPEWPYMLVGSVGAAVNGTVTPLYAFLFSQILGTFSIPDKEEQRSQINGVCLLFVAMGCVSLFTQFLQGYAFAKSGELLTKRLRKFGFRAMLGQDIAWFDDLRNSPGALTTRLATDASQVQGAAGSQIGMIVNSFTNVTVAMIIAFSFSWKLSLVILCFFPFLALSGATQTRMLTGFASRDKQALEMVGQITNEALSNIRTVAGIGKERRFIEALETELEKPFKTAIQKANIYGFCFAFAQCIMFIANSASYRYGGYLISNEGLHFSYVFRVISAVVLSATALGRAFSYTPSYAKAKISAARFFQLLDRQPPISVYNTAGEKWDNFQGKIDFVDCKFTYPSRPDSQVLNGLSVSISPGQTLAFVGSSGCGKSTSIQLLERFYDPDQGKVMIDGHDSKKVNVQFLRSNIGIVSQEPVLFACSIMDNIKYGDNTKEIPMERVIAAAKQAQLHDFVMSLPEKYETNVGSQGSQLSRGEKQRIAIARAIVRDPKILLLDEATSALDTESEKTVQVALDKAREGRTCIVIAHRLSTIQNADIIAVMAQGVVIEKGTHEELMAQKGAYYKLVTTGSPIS
Experimental: These assays were conducted by Solvo Biotechnology and overseen by DSSI.
To assess the functional impact of ubrogepant on the human ABC efflux transporters BSEP, MRP3, and MRP4, in vitro vesicular transport inhibition assays were conducted by Solvo Biotechnology (Szeged, Hungary). The ability of ubrogepant to inhibit the BSEP-mediated transport (and accumulation) of a probe substrate was tested at concentrations ranging from 0.04 – 30 μM, where the latter defined the upper limit of compound solubility in the BSEP assay buffer. For the MRP3 and MRP4 vesicle-based transporter assessments, ubrogepant concentrations of 0.1 to 70 μM were used. To assess the functional impact of ubrogepant on the human SLC (uptake) transporter NTCP, in vitro experiments were performed using HEK293 cells stably expressing NTCP. The ability of ubrogepant to inhibit NTCP-mediated uptake (and accumulation) of taurocholate was tested at concentrations ranging from 0.04 – 30 μM.
In the current project, additional assays were conducted to determine the Ki value and inhibition type for ubrogepant for BSEP-mediated bile acid transport. These assays were conducted by Solvo Biotechnology and overseen by DSSI. Briefly, BSEP inhibition studies were performed with multiple substrate concentrations (0.39 – 50 µM taurocholate) and multiple inhibitor concentrations (0.5 – 30 µM ubrogepant). Ki and inhibition type for ubrogepant were determined by fitting a mixed inhibition model to the untransformed data by nonlinear regression analysis. It was assumed that inhibition type for ubrogepant for other transporters (i.e., MRP3 and MRP4) was mixed with α= 5; this is a typical value for bile acid transporter inhibitors in the experience of the DSS team.
To assess the functional impact of MK-3207 on the human ABC efflux transporters BSEP, MRP3 and MRP4, in vitro vesicular transport inhibition assays were conducted by Solvo Biotechnology (Szeged, Hungary) and overseen by DSSI. BSEP transport was assessed in the presence of 0.5-30 µM MK-3207; MRP3 and MRP4 transport was assessed in the presence of 0.11-80 µM MK-3207. The upper limits of these ranges were determined by compound solubility in each assay buffer. NTCP transporter inhibition was assessed in NTCP-expressing HEK293 cells in the presence of 0.03 – 25 µM MK-3207.
In these experiments, taurocholic acid (TCA) transport was assessed at a range of MK-3207 concentrations (0.04 – 30 µM) as well as at a range of TCA media concentrations (0.39 – 50 µM). A Ki was then determined by fitting a mixed inhibition model to the inhibition data by nonlinear regression analysis.

[5] = tested on: RNS/ROS production; assay: DILIsym fit of ROS data (oxidative stress parameter); set-up: species or system human; details: fit of 24-hour HepG2 ROS data
Text: Parameter values for telcagepant-mediated induction of oxidative stress were identified by simulating the experimental data in DILIsym® using a DILIsym® dosing scheme meant to represent in vitro conditions.
Parameter values for ubrogepant-mediated induction of oxidative stress were identified by simulating the experimental data in DILIsym using a DILIsym drug exposure scheme designed to represent in vitro conditions.
Parameter values for MK-3207-mediated induction of oxidative stress were identified by simulating the experimental data in DILIsym using a DILIsym drug exposure scheme meant to represent in vitro conditions. Intracellular compound concentrations were also assayed in identical cell cultures; the experimental method was the same as that described above for ubrogepant.

[6] = mixed inhibition model, nonlinear regression

SMILES | Pivotal conventional nonclinical toxicology study liver findings [1] | exposure margin [1] | formation of reactive metabolites that covalently bind to CYP3A4 and result in its degradation [3] | Vmax of taurocholate ([4]; inhibitor 0.5 µM) | Vmax of taurocholate ([4]; inhibitor 2.5 µM) | Vmax of taurocholate ([4]; inhibitor 5 µM) | Vmax of taurocholate ([4]; inhibitor 15 µM) | Vmax of taurocholate ([4]; inhibitor 30 µM) | BSEP inhibition type [4] | inhibition of BSEP-mediated probe substrate transport [4] | RNS/ROS production rate constant [5] | alpha (mixed inhibition model) ([4]; mixed inhibition model) | Ki [4, 6] | further results
O=C(CN1C(=O)C2(CCCC2)NC[C@H]1c1cc(F)cc(F)c1)Nc1ccc2c(c1)C[C@@]1(C2)C(=O)Nc2ncccc21 [MK-3207] | no liver safety signal | 4 × | formed reactive metabolites that covalently bind to CYP3A4 and result in its degradation | 171.9 pmol/mg protein/min | 183.1 pmol/mg protein/min | 174.9 pmol/mg protein/min | 132.5 pmol/mg protein/min | 151.7 pmol/mg protein/min | competitive model is presumed to be the most likely mode of inhibition | inhibited | 0.00022 mL/nmol/h |  |  | clinical study exposure (mean) ([2]; Phase 2, 900 mg daily): b Phase 2 clinical study exposures based on mean of 60 μM/h at dose of 900 mg daily; original projected daily dose was 80 mg.; Ki ([4]; competitive inhibition model): 7.62 µM
O=C(N[C@@H]1CC[C@@H](c2cccc(F)c2F)CN(CC(F)(F)F)C1=O)N1CCC(n2c(=O)[nH]c3ncccc32)CC1 [Telcagepant] | no liver safety signal | 7 × | did not |  | 186.3 pmol/mg protein/min | 208.1 pmol/mg protein/min |  |  | likely to be a mixed BSEP inhibitor | inhibited | 20,000 mL/mol/hr | 4.6 | 7.9 µM | clinical study exposure (mean) ([2]; Phase 3, 280 mg BID (2 h apart)): a Phase 3 clinical study exposures based on mean of 70 μM/h at dose of 280 mg BID (2 h apart).; Vmax of taurocholate ([4]; inhibitor 10 µM): 77.52 pmol/mg protein/min; Vmax of taurocholate ([4]; inhibitor 20 µM): 119.7 pmol/mg protein/min; IC50 ([4]; vesicular transport, taurocholate, read-out: BSEP estimated IC50): 10.2 µM; BSEP inhibition ([4]; vesicular transport, up to 20 µM): > 50%
C[C@@H]1[C@H](c2ccccc2)C[C@H](NC(=O)c2cnc3c(c2)C[C@@]2(C3)C(=O)Nc3ncccc32)C(=O)N1CC(F)(F)F [Ubrogepant] | no liver safety signal | 163 × | did not | 181.3 pmol/mg protein/min | 175.6 pmol/mg protein/min | 171.3 pmol/mg protein/min | 171.9 pmol/mg protein/min | 172.3 pmol/mg protein/min | likely to be a mixed BSEP inhibitor | inhibited | 0.00016 mL/nmol/h | 8.39 | 38.1 µM | clinical study exposure ([2]; Phase 3, 100 mg QD): c Phase 3 clinical study exposures based on 2 μM/h at dose of 100 mg QD.

From publication PMC8312697, “Mechanistic Investigations Support Liver Safety of Ubrogepant” (Toxicological Sciences, 2020)
